Experimental data from PubChem BioAssay (NCI).
Several values for one entry are separate records, joined by “and”; a condition that tells them apart may be missing. Equal entries are not always repeated.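 1) Cells in 96-well plates. 2) Compound, 48 h, 5 concentrations. 3) Linear interpolation between surrounding doses. 4) Unreached endpoint = highest concentration. At the GI50, growth is halved. The concentration for full growth arrest is given as TGI.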

What was measured:
Experiment in all cases: DTP human tumour cell line panel, 48 h
RPMI-8226 leukemia = tested on: RPMI-8226 leukemia
IGROV1 ovarian = tested on: IGROV1 ovarian
SW-620 colon = tested on: SW-620 colon
UO-31 renal = tested on: UO-31 renal
SF-539 CNS = tested on: SF-539 CNS
A498 renal = tested on: A498 renal
SK-MEL-5 melanoma = tested on: SK-MEL-5 melanoma
MDA-MB-231 breast = tested on: MDA-MB-231 breast
NCI-H460 lung = tested on: NCI-H460 lung
K-562 leukemia = tested on: K-562 leukemia
OVCAR-8 ovarian = tested on: OVCAR-8 ovarian
ACHN renal = tested on: ACHN renal
HOP-62 NSCLC = tested on: HOP-62 NSCLC
NCI-H23 lung = tested on: NCI-H23 lung
DU-145 prostate = tested on: DU-145 prostate
UACC-62 melanoma = tested on: UACC-62 melanoma
HS 578T breast = tested on: HS 578T breast
NCI-H522 lung = tested on: NCI-H522 lung
A549 NSCLC = tested on: A549 NSCLC
MDA-MB-435 = tested on: MDA-MB-435
MOLT-4 leukemia = tested on: MOLT-4 leukemia
NCI/ADR-RES ovarian = tested on: NCI/ADR-RES ovarian
SK-MEL-28 melanoma = tested on: SK-MEL-28 melanoma
SR leukemia = tested on: SR leukemia
M14 melanoma = tested on: M14 melanoma
LOX IMVI melanoma = tested on: LOX IMVI melanoma
TK-10 renal = tested on: TK-10 renal
OVCAR-4 ovarian = tested on: OVCAR-4 ovarian
OVCAR-3 ovarian = tested on: OVCAR-3 ovarian
COLO 205 colon = tested on: COLO 205 colon
HCC-2998 colon = tested on: HCC-2998 colon
OVCAR-5 ovarian = tested on: OVCAR-5 ovarian
SNB-75 CNS = tested on: SNB-75 CNS
HOP-92 NSCLC = tested on: HOP-92 NSCLC
SN12C renal = tested on: SN12C renal
SNB-19 CNS = tested on: SNB-19 CNS
U251 CNS = tested on: U251 CNS
MALME-3M melanoma = tested on: MALME-3M melanoma
UACC-257 melanoma = tested on: UACC-257 melanoma
EKVX NSCLC = tested on: EKVX NSCLC
SF-295 CNS = tested on: SF-295 CNS
T-47D breast = tested on: T-47D breast
SF-268 CNS = tested on: SF-268 CNS
HL-60(TB) leukemia = tested on: HL-60(TB) leukemia
CAKI-1 renal = tested on: CAKI-1 renal
NCI-H226 lung = tested on: NCI-H226 lung
HT29 colon = tested on: HT29 colon
MCF7 breast = tested on: MCF7 breast
KM12 colon = tested on: KM12 colon
786-0 renal = tested on: 786-0 renal
HCT-116 colon = tested on: HCT-116 colon
PC-3 prostate = tested on: PC-3 prostate
SK-OV-3 ovarian = tested on: SK-OV-3 ovarian
HCT-15 colon = tested on: HCT-15 colon
SK-MEL-2 melanoma = tested on: SK-MEL-2 melanoma
RXF 393 renal = tested on: RXF 393 renal
BT-549 breast = tested on: BT-549 breast

Structure (SMILES): CCN(CC)CCOc1ccc(/C(=C(\Cl)c2ccccc2)c2ccccc2)cc1
- GI50 (RPMI-8226 leukemia): 2.17 µM
- TGI (RPMI-8226 leukemia): 6.98 µM
- GI50 (IGROV1 ovarian): 4.83 µM and 3.04 µM
- TGI (IGROV1 ovarian): 12.8 µM and 14.1 µM
- GI50 (SW-620 colon): 1.11 µM and 1.74 µM
- TGI (SW-620 colon): 2.56 µM and 3.73 µM
- GI50 (UO-31 renal): 0.856 µM and 1.49 µM
- TGI (UO-31 renal): 2.62 µM and 5.9 µM
- GI50 (SF-539 CNS): 1.77 µM and 1.87 µM
- TGI (SF-539 CNS): 5.49 µM and 4.29 µM
- GI50 (A498 renal): 6.96 µM and 2.32 µM
- TGI (A498 renal): 13.7 µM and 10.1 µM
- GI50 (SK-MEL-5 melanoma): 0.808 µM and 1.55 µM
- TGI (SK-MEL-5 melanoma): 1.5 µM and 2.88 µM
- GI50 (MDA-MB-231 breast): 1.37 µM and 2.13 µM
- TGI (MDA-MB-231 breast): 5.16 µM and 4.49 µM
- GI50 (NCI-H460 lung): 1.72 µM and 1.78 µM
- TGI (NCI-H460 lung): 5.32 µM and 3.43 µM
- GI50 (K-562 leukemia): 1.55 µM
- TGI (K-562 leukemia): 11.5 µM
- GI50 (OVCAR-8 ovarian): 7 µM and 4.65 µM
- TGI (OVCAR-8 ovarian): 14.3 µM and 18.6 µM
- GI50 (ACHN renal): 6.4 µM and 4.27 µM
- TGI (ACHN renal): 13.1 µM and 16.5 µM
- GI50 (HOP-62 NSCLC): 1.38 µM and 1.94 µM
- TGI (HOP-62 NSCLC): 4.76 µM and 4.16 µM
- GI50 (NCI-H23 lung): 5.25 µM and 2.62 µM
- TGI (NCI-H23 lung): 11.8 µM and 10.3 µM
- GI50 (DU-145 prostate): 6.79 µM and 5.62 µM
- TGI (DU-145 prostate): 13.3 µM and 19.2 µM
- GI50 (UACC-62 melanoma): 1.04 µM and 2.15 µM
- TGI (UACC-62 melanoma): 2.33 µM and 4.88 µM
- GI50 (HS 578T breast): 5.25 µM and 3.15 µM
- TGI (HS 578T breast): 19.4 µM and 17.7 µM
- GI50 (NCI-H522 lung): 3.09 µM and 1.47 µM
- TGI (NCI-H522 lung): 10 µM and 3.02 µM
- GI50 (A549 NSCLC): 2.92 µM and 4.32 µM
- TGI (A549 NSCLC): 9.57 µM and 15.3 µM
- GI50 (MDA-MB-435): 1.54 µM and 2.2 µM
- TGI (MDA-MB-435): 5.78 µM and 7.08 µM
- GI50 (MOLT-4 leukemia): 2.98 µM and 3.71 µM
- TGI (MOLT-4 leukemia): 11.8 µM and 13.1 µM
- GI50 (NCI/ADR-RES ovarian): 5.56 µM and 3.34 µM
- TGI (NCI/ADR-RES ovarian): 12.2 µM and 14.4 µM
- GI50 (SK-MEL-28 melanoma): 1.07 µM and 1.79 µM
- TGI (SK-MEL-28 melanoma): 2.21 µM and 3.47 µM
- GI50 (SR leukemia): 1.9 µM and 2.3 µM
- TGI (SR leukemia): 9.16 µM and 8.36 µM
- GI50 (M14 melanoma): 1.03 µM and 1.73 µM
- TGI (M14 melanoma): 2.04 µM and 3.44 µM
- GI50 (LOX IMVI melanoma): 0.916 µM and 1.67 µM
- TGI (LOX IMVI melanoma): 1.89 µM and 3.22 µM
- GI50 (TK-10 renal): 5.62 µM and 2.83 µM
- TGI (TK-10 renal): 12.6 µM and 10.2 µM
- GI50 (OVCAR-4 ovarian): 5.31 µM and 3.14 µM
- TGI (OVCAR-4 ovarian): 11.3 µM and 11.6 µM
- GI50 (OVCAR-3 ovarian): 5.24 µM and 3.42 µM
- TGI (OVCAR-3 ovarian): 11.4 µM and 15.7 µM
- GI50 (COLO 205 colon): 0.859 µM and 1.36 µM
- TGI (COLO 205 colon): 1.72 µM and 2.83 µM
- GI50 (HCC-2998 colon): 2 µM and 2.4 µM
- TGI (HCC-2998 colon): 7.35 µM and 6.41 µM
- GI50 (OVCAR-5 ovarian): 3.42 µM and 3.33 µM
- TGI (OVCAR-5 ovarian): 9.95 µM and 15.2 µM
- GI50 (SNB-75 CNS): 2.19 µM and 1.39 µM
- TGI (SNB-75 CNS): 8.5 µM and 4.95 µM
- GI50 (HOP-92 NSCLC): 1.58 µM
- TGI (HOP-92 NSCLC): 5.4 µM
- GI50 (SN12C renal): 5.28 µM and 4.43 µM
- TGI (SN12C renal): 11.9 µM and 16.5 µM
- GI50 (SNB-19 CNS): 5.41 µM and 2.25 µM
- TGI (SNB-19 CNS): 11.9 µM and 5.41 µM
- GI50 (U251 CNS): 1.72 µM and 1.53 µM
- TGI (U251 CNS): 7.22 µM and 3.51 µM
- GI50 (MALME-3M melanoma): 1.21 µM and 1.43 µM
- TGI (MALME-3M melanoma): 3.88 µM and 2.99 µM
- GI50 (UACC-257 melanoma): 0.989 µM and 1.97 µM
- TGI (UACC-257 melanoma): 2.09 µM and 4.04 µM
- GI50 (EKVX NSCLC): 5.74 µM and 3.44 µM
- TGI (EKVX NSCLC): 13 µM and 17.3 µM
- GI50 (SF-295 CNS): 1.06 µM and 1.87 µM
- TGI (SF-295 CNS): 2.54 µM and 4.02 µM
- GI50 (T-47D breast): 1.51 µM and 1.73 µM
- TGI (T-47D breast): 9.55 µM and 12.9 µM
- GI50 (SF-268 CNS): 5.47 µM and 4.78 µM
- TGI (SF-268 CNS): 11.9 µM and 19.2 µM
- GI50 (HL-60(TB) leukemia): 2.1 µM and 3.13 µM
- TGI (HL-60(TB) leukemia): 7.77 µM and 6.16 µM
- GI50 (CAKI-1 renal): 5.47 µM and 1.66 µM
- TGI (CAKI-1 renal): 12.3 µM and 5.48 µM
- GI50 (NCI-H226 lung): 5.46 µM and 4.01 µM
- TGI (NCI-H226 lung): 12.9 µM and 16.3 µM
- GI50 (HT29 colon): 0.944 µM and 0.353 µM
- TGI (HT29 colon): 2.21 µM and 1.38 µM
- GI50 (MCF7 breast): 0.307 µM and 0.577 µM
- TGI (MCF7 breast): 7.55 µM and 2.99 µM
- GI50 (KM12 colon): 2.1 µM and 1.87 µM
- TGI (KM12 colon): 7.2 µM and 4.08 µM
- GI50 (786-0 renal): 0.94 µM and 1.7 µM
- TGI (786-0 renal): 1.81 µM and 3.17 µM
- GI50 (HCT-116 colon): 2.03 µM and 1.49 µM
- TGI (HCT-116 colon): 7.14 µM and 3.07 µM
- GI50 (PC-3 prostate): 2.63 µM and 2.76 µM
- TGI (PC-3 prostate): 9.02 µM and 10.2 µM
- GI50 (SK-OV-3 ovarian): 5.38 µM and 4.67 µM
- TGI (SK-OV-3 ovarian): 11.5 µM and 17.2 µM
- GI50 (HCT-15 colon): 1.47 µM and 1.72 µM
- TGI (HCT-15 colon): 5.01 µM and 7.38 µM
- GI50 (SK-MEL-2 melanoma): 3.26 µM and 1.64 µM
- TGI (SK-MEL-2 melanoma): 10.4 µM and 3.7 µM
- GI50 (RXF 393 renal): 0.955 µM and 1.49 µM
- TGI (RXF 393 renal): 2.46 µM and 3.03 µM
- GI50 (BT-549 breast): 5.48 µM and 2.91 µM
- TGI (BT-549 breast): 11.9 µM and 12.1 µM
